Patent US5328909A, “Cyclopropenone derivatives” (Mitsubishi Kasei Corporation, priority 1991, dated 1994)
Structures can show the parent of a compound that is named as a salt.

These compounds were tested against T1, m-calpain (Rattus norvegicus, UniProt Q07009) (assay: Thiol protease inhibitory activity against m-calpain purified from rat brain). Conditions: Table 4; rat brain enzyme; read-out: Inhibitory activity against m-calpain IC50.
T1 construct: m-calpain was purified from rat brain; from tissue; host or cells: rat brain
T1 sequence (Q07009 20-700 limits assumed): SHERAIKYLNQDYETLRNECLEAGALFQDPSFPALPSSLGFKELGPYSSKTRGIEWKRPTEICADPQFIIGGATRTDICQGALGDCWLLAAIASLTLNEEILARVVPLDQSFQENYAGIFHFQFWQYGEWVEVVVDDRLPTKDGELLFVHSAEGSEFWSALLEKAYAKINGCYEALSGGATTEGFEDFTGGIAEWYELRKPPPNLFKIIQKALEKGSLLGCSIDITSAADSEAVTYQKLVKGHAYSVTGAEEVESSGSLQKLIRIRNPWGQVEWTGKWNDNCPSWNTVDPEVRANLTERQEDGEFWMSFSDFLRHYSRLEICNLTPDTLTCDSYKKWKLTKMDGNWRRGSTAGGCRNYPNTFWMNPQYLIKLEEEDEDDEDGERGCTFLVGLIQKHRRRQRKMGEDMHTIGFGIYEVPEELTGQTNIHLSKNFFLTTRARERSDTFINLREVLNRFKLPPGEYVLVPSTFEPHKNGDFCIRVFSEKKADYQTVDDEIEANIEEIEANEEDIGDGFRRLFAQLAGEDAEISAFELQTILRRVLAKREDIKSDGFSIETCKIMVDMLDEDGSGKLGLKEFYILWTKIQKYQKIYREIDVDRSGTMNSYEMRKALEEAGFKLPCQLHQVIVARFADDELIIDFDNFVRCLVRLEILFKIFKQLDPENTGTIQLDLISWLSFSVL
T1 sequence (Q64537 1-270 partner): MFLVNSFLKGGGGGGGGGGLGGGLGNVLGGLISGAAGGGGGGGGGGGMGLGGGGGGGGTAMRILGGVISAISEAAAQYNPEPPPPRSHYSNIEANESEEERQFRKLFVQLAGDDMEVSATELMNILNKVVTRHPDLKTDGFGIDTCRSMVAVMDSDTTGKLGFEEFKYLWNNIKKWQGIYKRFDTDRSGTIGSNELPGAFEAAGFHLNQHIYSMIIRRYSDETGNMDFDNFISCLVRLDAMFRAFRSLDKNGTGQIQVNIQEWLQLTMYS
Assay type: biochemical
Procedure: Inhibitory activity against papain (P-3125, Sigma) and cathepsin B (C-6286, Sigma) was assayed according to the method described in a literature [Biochemical Journal, 201, 189 (1982)]. Capthesin L was purified from rat kidney according to the method in a literature [Journal of Biochemistry, 100, 35 (1986)], and the inhibitory activity against it was assayed in the same manner as described in the above literature for cathepsin B. Further, m-calpain was purified from rat brain according to a known method [Journal of Biological Chemistry, 254, p.3210 (1984)] and the inhibitory activity against it was assayed by a method described in a literature [Journal of Biological Chemistry, 259, 12489 (1984)]. The results are showing in Tables 3 and 4. It is evident from Tables 3 and 4 that the compounds in the present invention have a potent inhibitory activity against thiol proteases such as papain, cathepsin B, cathepsin L, m-calpain or the like.

IC50 [nM] | SMILES
800 | CC(C)C[C@H](NC(=O)CCOc1ccccc1)C(=O)N[C@@H](C(C)C)[C@@H](O)c1c(-c2ccccc2)c1=O [55 (No. 167), 2-[(1S, 2S)-1-hydroxy-3-methyl-2-{(S)-4-methyl-2-(3-phenoxypropionylamino)valerylamino}butyl]-3-phenylcyclopropenone]
1800 | COC(=O)c1ccc(C(=O)N[C@@H](CC(C)C)C(=O)N[C@@H](C(C)C)[C@@H](O)c2c(-c3ccccc3)c2=O)cc1 [65 (No. 191), 2-[(1S, 2S)-1-hydroxy-2-{(S)-2-(4-methoxycarbonylbenzoylamino)-4-methylvalerylamino}-3-methylbutyl]-3-phenylcyclopropenone]
3000 | Cc1cc(C(=O)N[C@@H](CC(C)C)C(=O)N[C@@H](C(C)C)[C@@H](O)c2c(-c3ccccc3)c2=O)n(C)n1 [69 (No. 203), 2-[(1S, 2S)-2-{(S)-2-(1,3-dimethyl-5-pyrazolylcarbonylamino)-4-methylvalerylamino}-1-hydroxy-3-methylbutyl]-3-phenylcyclopropenone]
1600 | Cc1ccccc1C(=O)N[C@@H](CC(C)C)C(=O)N[C@@H](C(C)C)[C@@H](O)c1c(-c2ccccc2)c1=O [63 (No. 184), 2-[(1S, 2S)-1-hydroxy-3-methyl-2-{(S)-4-methyl-2-(2-toluoylamino)valerylamino}butyl]-3-phenylcyclopropenone]
2300 | COc1ccccc1OCC(=O)N[C@@H](CC(C)C)C(=O)N[C@@H](C(C)C)[C@@H](O)c1c(-c2ccccc2)c1=O [53 (No. 161)]
1300 | CC(C)C[C@H](NC(=O)OCc1ccncc1)C(=O)N[C@@H](C(C)C)[C@@H](O)c1c(-c2ccccc2)c1=O [31 (No. 99), 2-[(1S, 2S)-1-hydroxy-3-methyl-2-{(S)-4-methyl-2-(4-pyridylmethoxycarbonylamino)valerylamino}butyl]-3-phenylcyclopropenone hydrochloride]
1400 | CC(C)C[C@H](NC(=O)c1ccc(Cl)cc1)C(=O)N[C@@H](C(C)C)[C@@H](O)c1c(-c2ccccc2)c1=O [62 (No. 180), 2-[(1S, 2S)-2-{(S)-2-(4-chlorobenzoylamino)-4-methylvalerylamino}-1-hydroxy-3-methylbutyl]-3-phenylcyclopropenone]
1700 | CC(C)C[C@H](NC(=O)OCc1ccccn1)C(=O)N[C@@H](C(C)C)[C@@H](O)c1c(-c2ccccc2)c1=O [29 (No. 97), 2-[(1s, 2S)-1-hydroxy-3-methyl-2-{(S)-4-methyl-2-(2-pyridylmethoxycarbonylamino)valerylamino}butyl]-3-phenylcyclopropenone hydrochloride]
400 | CC(C)C[C@H](NC(=O)c1ccncc1)C(=O)N[C@@H](C(C)C)[C@@H](O)c1c(-c2ccccc2)c1=O [72 (No. 213), 2-[(1S, 2S)-1-hydroxy-2-((S)-2-isonicotinoylamino-4-methylvalerylamino)-3-methylbutyl]-3-phenylcyclopropenone]
3100 | CC(C)C[C@H](NC(=O)CCS(=O)(=O)c1ccccc1)C(=O)N[C@@H](C(C)C)[C@@H](O)c1c(-c2ccccc2)c1=O [57 (No. 170)]
2200 | CC(C)C[C@H](NC(=O)CSc1ccccc1)C(=O)N[C@@H](C(C)C)[C@@H](O)c1c(-c2ccccc2)c1=O [56 (No. 168), 2-[(1S, 2S)-1-hydroxy-3-methyl-2-((S)-4-methyl-2-phenylthioacetylaminovalerylamino}butyl]-3-phenylcyclopropenone]
750 | CC(C)C[C@H](NC(=O)COc1ccc(Cl)cc1)C(=O)N[C@@H](C(C)C)[C@@H](O)c1c(-c2ccccc2)c1=O [51 (No. 154), 2-[(1S, 2S)-2-{(S)-2-(4-chlorophenoxyacetylamino)-4-methylvalerylamino}-1-hydroxy-3-methylbutyl]-3-phenylcyclopropenone]
1600 | CC(C)C[C@H](NC(=O)c1c(F)cccc1F)C(=O)N[C@@H](C(C)C)[C@@H](O)c1c(-c2ccccc2)c1=O [59 (No. 175), 2-[(1S, 2S)-2-{(S)-2-(2,6-difluorobenzoylamino)-4-methylvalerylamino}-1-hydroxy-3-methylbutyl]-3-phenylcyclopropenone]
1400 | CC(C)C[C@H](NC(=O)c1ccnc(Cl)c1)C(=O)N[C@@H](C(C)C)[C@@H](O)c1c(-c2ccccc2)c1=O [73 (No. 216), 2-[(1s, 2S)-2-{(S)-2-(2-chloroisonicotinoylamino)-4-methylvalerylamino}-1-hydroxy-3-methylbutyl]-3-phenylcyclopropenone]
4600 | CC(C)C[C@H](NC(=O)Nc1ccccc1)C(=O)N[C@@H](C(C)C)[C@@H](O)c1c(-c2ccccc2)c1=O [76 (No. 227)]

The next lines start with the compound.

SMILES | IC50 [nM]
CC(C)C[C@H](NS(=O)(=O)c1cccc2ccccc12)C(=O)N[C@@H](C(C)C)[C@@H](O)c1c(-c2ccccc2)c1=O [88 (No. 259), 2-[(1S, 2S)-1-hydroxy-3-methyl-2-{(S)-4-methyl-2-(1-naphtylsulfonylamino)valerylamino}butyl]-3-phenylcyclopropenone] | 650
CC(C)C[C@H](NC(=O)OCc1ccccc1)C(=O)N[C@@H](Cc1ccccc1)C(O)c1cc1=O (stereo partly drawn) [9 (No. 26), 2-[(2S)-2-((S)-2-benzyloxycarbonylamino-4-methylvalerylamino)-1-hydroxy-3-phenylpropyl]cyclopropenone] | 5000
CC(C)C[C@H](NS(=O)(=O)Cc1ccccc1)C(=O)N[C@@H](C(C)C)[C@@H](O)c1c(-c2ccccc2)c1=O [78 (No. 237), 2-[(1S, 2S)-2-((S)-2-benzylsulfonylamino-4-methylvalerylamino)-1-hydroxy-3-methylbutyl]-3-phenylcyclopropenone] | 440
CC(C)C[C@H](NS(=O)(=O)c1ccc2ccccc2c1)C(=O)N[C@@H](C(C)C)[C@@H](O)c1c(-c2ccccc2)c1=O [89 (No. 260), 2-[(1S, 2S)-1-hydroxy-3-methyl-2-{(S)-4-methyl-2-(2-naphtylsulfonylamino)valerylamino}butyl]-3-phenylcyclopropenone] | 460
CC(C)C[C@H](NC(=O)C1CCCCC1)C(=O)N[C@@H](C(C)C)[C@@H](O)c1c(-c2ccccc2)c1=O [40 (No. 129), 2-[(1S, 2S)-2-((S)-2-cyclohexylcarbonylamino-4-methylvalerylamino)-1-hydroxy-3-methylbutyl]-3-phenylcyclopropenone] | 2600
CCCC[C@H](NC(=O)[C@H](CC(C)C)NC(=O)OCc1ccccc1)C(O)c1c(-c2ccc(F)cc2)c1=O (stereo partly drawn) [112 (No. 319), 2[(2S)-2-((S)-2-benzyloxycarbonylamino-4-methylvalerylamino)-1-hydroxyhexyl]-3-(4-fluorophenyl)cyclopropenone] | 4300
CC(C)C[C@H](NC(=O)[C@H](Cc1ccccc1)NC(=O)OCc1ccccc1)C(=O)N[C@@H](C(C)C)[C@@H](O)c1c(-c2ccccc2)c1=O [120 (No. 478), 2-[(1S, 2S)-2-{(S)-2-((S)-2-benzyloxycarbonylamino-3-phenylpropionylamino)-4-methylvalerylamino}-1-hydroxy-3-methylbutyl]-3-phenylcyclopropenone] | 1200
CC(C)COC(=O)N[C@@H](CC(C)C)C(=O)N[C@@H](C(C)C)[C@@H](O)c1c(-c2ccccc2)c1=O [20 (No. 72), 2-[(1S, 2S)-1-hydroxy-2-((S)-2-isobutoxycarbonylamino-4-methylvalerylamino)-3-methylbutyl]-3-phenylcyclopropenone] | 1300
CC(C)C[C@H](NS(=O)(=O)Cc1ccccc1)C(=O)N[C@@H](C(C)C)[C@H](O)c1c(-c2ccccc2)c1=O [79 (No. 237), 2-[(1R, 2S)-2-((S)-2-benzylsulfonylamino-4-methylvalerylamino)-1-hydroxy-3-methylbutyl]-3-phenylcyclopropenone] | 1800
CC(C)COC(=O)N[C@@H](CC(C)C)C(=O)N[C@@H](C(C)C)[C@H](O)c1c(-c2ccccc2)c1=O [21 (No. 72), 2-[(1R, 2S)-1-hydroxy-2-((S)-2-isobutoxycarbonylamino-4-methylvalerylamino)-3-methylbutyl]-3-phenylcyclopropenone] | 3000
